Read-outs that look alike come from different tables or passages of the source.
Legend:
[1] = Cytotoxicity assay (XTT method); assay type: cell-based, Human; conditions: human, mean ± SD; for CC50 at 72 h: uninfected Huh-7 cells, read-out: CC50 (concentration causing a 50% growth inhibition of uninfected Huh-7 cells); for viability at 72 h, 20 µM / viability at 72 h, 200 µM: Huh-7 cells, XTT; for viability at 72 h, 20 µM: read-out: Huh-7 Cell % viability at 20 μM; for viability at 72 h, 200 µM: read-out: Huh-7 Cell % viability at 200 μM
Description: (§1) For cytotoxicity tests, run in parallel with antiviral assays, plates at an initial density of 5 × 10^3 cells/well were treated with or without serial dilutions of test compounds. Cell viability was determined after 72 h at 37 °C in a humidified CO2 (5%) atmosphere by the (2,3-bis[2-methyloxy-4-nitro-5-sulfophenyl]-2H-tetrazolium-5-carboxanilide) (XTT) method.

DENV-2 = test system: DENV-2; design: method as in PMID 29031073; conditions: cited from earlier work; for EC50: anti-DENV-2 activity
DENV2 [2] = experiment: microbe, parasite or virus in culture; assay type: cell-based, dengue virus; conditions: for SI (selectivity index, CC50/EC50): CC50 Huh-7 / EC50 DENV; for EC50 / inhibition at 1 µM / inhibition at 10 µM: Dengue virus; for EC50: DENV2, DENV replication, read-out: EC50 (concentration resulting in a 50% inhibition in virus production); for inhibition at 1 µM / inhibition at 10 µM: DENV2, 72 h
Description: Anti-DENV activities were determined by firefly luciferase activity.
Huh-7-DV-Fluc cells were seeded in 24-well plates at a density of 2 × 10^4 cells per well, and treated with the 3-arylquinoxaline compounds at two concentrations (1 and 10 μM) or 0.1% DMSO as control. After three days of incubation, the luciferase activity assay was performed using the Bright-Glo Luciferase assay system (Promega, Madison, WI, USA) according to the manufacturer’s instructions.

DENV2 [3] = test system: DENV2; design: method as in PMID 29031073; conditions: cited from earlier work
Huh-7 cells [4] = test system: Huh-7 cells; design: method as in PMID 29031073; conditions: cited from earlier work
DENV = test system: DENV; design: method as in PMID 27750144; conditions: against DENV; cited from earlier work
Huh-7 cells [5] = experiment: Cytotoxicity assay (XTT method); assay type: cell-based, Human; conditions: Huh-7 cells
Description: as §1

DENV2 [6] = conditions: DENV2 in VERO-B cells; cited from earlier work
[7] = 10 μM, Huh-7-DV-Fluc cells, three days, mean ± SD
[8] = Huh-7-DV-Fluc cells, three days, mean ± SD

Row | SMILES | viability at 72 h, 20 µM [1] | viability at 72 h, 200 µM [1] | inhibition at 1 µM (DENV2 [2]; [8]) | inhibition at 10 µM (DENV2 [2]; [7]) | melting point | other results
1 | NC(=O)c1ncn([C@@H]2O[C@H](CO)[C@@H](O)[C@H]2O)n1 [Ribavirin] |  |  |  |  |  | CC50 at 72 h [1]: 56.3 ± 2.32 µM; EC50 (DENV-2): 12.6 µM; SI (selectivity index, CC50/EC50) (DENV2 [2]): 4.47; EC50 (DENV2 [2]; mean ± SD): 12.6 ± 1.17 µM; DENV2 % Inhibition at 1 μM (DENV2 [3]; 1 μM): 10.14 ± 1.98%; DENV2 % Inhibition at 10 μM (DENV2 [3]; 10 μM): 32.53 ± 2.30%; Huh-7 Cell % viability at 20 μM (Huh-7 cells [4]; 20 μM): 71.37 ± 1.31%; Huh-7 Cell % viability at 200 μM (Huh-7 cells [4]; 200 μM): 14.36 ± 2.14%
2 | Cc1ccc(Cc2nc(Cc3ccc(C)cc3-c3cc(C)n[nH]3)c3ccccc3n2)cc1 [Compound 2, 4-[4-methyl-2-(3-methyl-1H-pyrazol-5-yl)benzyl)-2-(4-methylbenzyl)quinazoline] |  |  |  |  |  | EC50 (DENV): 2.6 µM
3 | COc1ccc(C(=O)c2nc3ccccc3nc2-c2ccccc2)cc1 [Compound 21b, (4-Methoxyphenyl)(3-phenylquinoxalin-2-yl)methanone] | 106 ± 3.12% | 95.1 ± 4.32% | 42.8 ± 5.13% | 51% | 130 to 132.4 °C | cytotoxicity in words (Huh-7 cells [5]): non-cytotoxic; CC50 at 72 h [1]: > 200 µM; anti-DENV activity in words (DENV2 [2]; 10 μM, >32% inhibition of DENV-2 at 10 μM considered as active): highly active; DENV2 % Inhibition at 10 μM (DENV2 [2]; [7]): 51.85 ± 3.52%; SI (selectivity index, CC50/EC50) (DENV2 [2]): >61.54; EC50 (DENV2 [2]; mean ± SD): 3.25 ± 0.89 µM
4 | O=C(NCc1ccc(-c2ccncc2)cc1)c1nccnc1C(=O)Nc1ccc(F)cc1 [Compound 1, N^2-(4-fluorophenyl)-N^3-[4-(pyridin-4-yl)benzyl]pyrazine-2,3-dicarboxamide] |  |  |  |  |  | EC50 (DENV2 [6]): 0.93 µM
5 | COc1ccc(-c2nc3ccccc3nc2C(=O)c2ccccc2)cc1 [Compound 25a, [3-(4-Methoxyphenyl)quinoxalin-2-yl](phenyl)methanone] | 101 ± 2.39% | 100 ± 4.59% | 40.4 ± 2.22% | 47.5 ± 3.51% | 93.9 to 98.2 °C | 
6 | OC(c1ccccc1)c1nc2cc(Cl)c(Cl)cc2nc1-c1ccccc1 (stereo not drawn) [Compound 16a, (6,7-Dichloro-3-phenylquinoxalin-2-yl)(phenyl)methanol] | 108 ± 8.91% | 20.6 ± 5.37% | 1.97 ± 0.72% | 6.42 ± 2.97% | 136.4 to 136.9 °C | 
7 | COc1ccc(-c2nc3ccccc3nc2C(O)c2ccc(OC)cc2)cc1 (stereo not drawn) [Compound 19b, (4-Methoxyphenyl)[3-(4-methoxyphenyl)quinoxalin-2-yl]methanol] | 96.4 ± 1.24% | 21.3 ± 1.55% | 35.5 ± 4.82% | 47.7 ± 5.41% | 132.4 to 136 °C | 
8 | COc1ccc(-c2nc3cc(Cl)c(Cl)cc3nc2C(=O)c2ccccc2)cc1 [Compound 26a, [6,7-Dichloro-3-(4-methoxyphenyl)quinoxalin-2-yl](phenyl)methanone] | 99.4 ± 6.5% | 35.3 ± 4.95% | 1.95 ± 0.82% | 14.5 ± 2.55% | 173.9 to 174.3 °C | 
9 | COc1ccc(C(=O)c2nc3ccccc3nc2-c2ccc(OC)cc2)cc1 [Compound 25b, (4-Methoxyphenyl)[3-(4-methoxyphenyl)quinoxalin-2-yl]methanone] | 107 ± 3.03% | 99.4 ± 2.14% | 41.5 ± 3.25% | 49.7 ± 4.38% | 144.5 to 146.2 °C | 
10 | COc1ccc(-c2cc(-c3ccc4cc(F)ccc4n3)n(-c3ccc(S(N)(=O)=O)cc3)n2)cc1 [Compound 5, 4-[5-(6-fluoroquinolin-2-yl)-3-(4-methoxyphenyl)-1H-pyrazol-1-yl]benzenesulfonamide] |  |  |  |  |  | EC50 (DENV-2): 0.81 µM; fold more active anti-DENV-2 activity than ribavirin (DENV-2): approximately 10 fold

From publication PMC6801405, “Discovery of 3-Arylquinoxaline Derivatives as Potential Anti-Dengue Virus Agents” (International Journal of Molecular Sciences, 2019)
